Assay results published in patent publication US6002002A, “Anti-ischaemic hydroxylamine derivatives and pharmaceutical compositions” (Biorex Research & Development Co., priority 1995, dated 1999).

Tests used:
[1] = system: anaesthetized rats; assay: Reperfusion-induced arrhytmia (ventricular tachycardia and fibrillation) after LAD coronary occlusion in anaesthetized rats; survival; type: in vivo; settings: rat, 1 mg/kg i.v. 5 minutes before pressing LAD coronary artery; 5 min ischaemia, 10 min reperfusion
Procedure: The reperfusion-induced arrhytmia (ventricular tachycardia, KT and ventricuiar fibrillation, KF) was tested on anaesthetized rats. Myocardial ischaemia was induced by pressing the coronary artery for 5 minutes followed by 10 minutes reperfusion of the heart. The ECG was permanently monitored and the change of mean period of KT and KF by the effect of active materials was measured in the first 3 minutes of reperfusion. Survival was also monitored. The compounds were administered i.v. 5 minutes before pressing the LAD coronary artery in a dosis of 1 mg/kg.
Experimental results obtained by administering some representative compounds of the invention are listed below: […]

[2] = system: isolated rabbit thoracal aorta; assay: in vitro vasorelaxation on isolated rabbit thoracal aorta; type: cell-based; settings: Oryctolagus cuniculus
Procedure: The vasorelaxant effect of the compounds of the invention was tested in vitro on isolated rabbit thoracal aorta according to Am. J. Physiol. 257:, 1327-1333 (1989).

[3] = system: platelet aggregation; assay: Inhibition of ADP-induced platelet aggregation in platelet-rich preparates from human venal blood; type: cell-based; settings: concentration inhibiting the aggregation in 50%, read-out: antiaggregation EC50
Procedure: To the samples sodium citrate was added and 10 minutes later centrifuged with 1000 rpm.

SMILES	Survival % [1]	EC50 [2]	EC50 [3]
CCCNC(=O)NOCC(O)CN1CCCCC1 (stereo not shown) [Example 4, N-n-propyl-N'-(2-hydroxy-3-piperidino-propoxy)-urea]	67%	–	–
CCCCCCNC(=O)NOCCCN1CCCCC1 [Example 16, N-n-hexyl-N'-(3-piperidino-propoxy)-urea]	83%	450 µM	710 µM
O=C(NOCC(O)CN1CCCCC1)Nc1cccc(Cl)c1 (stereo not shown) [Example 7, N-(3-chlorophenyl)-N'-(2-hydroxy-3-piperidino-propoxy)-urea]	86%	100 µM	900 µM
CCCCCCCNC(=O)NOCC(O)CN1CCCCC1 (stereo not shown) [Example 23, N-heptyl-N'-(2-hydroxy-3-piperidino-propoxy)-urea]	80%	190 µM	430 µM
CC(C)COCC(CN(Cc1ccccc1)c1ccccc1)N1CCCC1 (stereo not shown) [Bepridyl, reference compound]	–	83 µM	–
CCOC(=O)[N-]c1c[n+](N2CCOCC2)no1 [Molsidomin, reference compound]	–	–	1500 µM
CCCCCCNC(=O)NOCC(O)CN1CCCCC1 (stereo not shown) [Example 6, N-n-hexyl-N'-(2-hydroxy-3-piperidino-propoxy)-urea]	100%	190 µM	1500 µM
O=C(NOCC(O)CN1CCCCC1)NC1CCCCC1 (stereo not shown) [Example 5, N-cyclohexyl-N'-(2-hydroxy-3-piperidino-propoxy)-urea]	67%	–	–
CC(C)(C)N(CC(O)CONC(=O)NC1CCCCC1)C(=O)NC1CCCCC1 (stereo not shown) [Example 15, N-cyclohexyl-N'-{2-hydroxy-3-[N-(cyclohexyl-carbamoyl)-N-tert-butylamino]-propoxy}-urea]	60%	–	–
O=C(NOCC(O)CN1CCCCC1)Nc1cccc([N+](=O)[O-])c1 (stereo not shown) [Example 19, N-(3-nitrophenyl)-N'-(2-hydroxy-3-piperidino-propoxy)-urea]	–	38 µM	340 µM
